From US7772241B2, “Variolin derivatives and their use as antitumor agents” (Pharma Mar S.A., priority 2001, dated 2010)

Columns and labels:
HT-29 = assay: Inhibition of cells growth by colorimetric (SRB) assay, HT-29
Outline: (§1)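 Read-out is sulforhodamine B protein stain (OD 490 nm) after cold TCA fixation, following 48 h continuous exposure to samples spanning 10 to 10^−8 μg/ml.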

IGROV-1 = assay: Inhibition of cells growth by colorimetric (SRB) assay, IGROV-1; conditions: for GI50 / CC50: Homo sapiens, IGROV-1, 48 h; for GI50: read-out: GI50 IGROV, SRB assay, 48 hours exposure; for CC50: read-out: LC50 IGROV, SRB assay, 48 hours exposure; for TGI IGROV: SRB assay, 48 hours exposure
Outline: as §1

LoVo = assay: Inhibition of cells growth by colorimetric (SRB) assay, LoVo
Outline: as §1

PANC-1 = assay: Inhibition of cells growth by colorimetric (SRB) assay, PANC-1; conditions: for GI50: read-out: GI50 PANC-1, SRB assay, 48 hours exposure
Outline: as §1

SK-MEL-28 = assay: Inhibition of cells growth by colorimetric (SRB) assay, SK-MEL-28; conditions: for GI50 / CC50: Homo sapiens, SK-MEL-28, 48 h; for GI50: read-out: GI50 MEL-28, SRB assay, 48 hours exposure; for CC50: read-out: LC50 MEL-28, SRB assay, 48 hours exposure; for TGI MEL-28: SRB assay, 48 hours exposure
Outline: as §1

K-562 = assay: Inhibition of cells growth by colorimetric (SRB) assay, K-562; conditions: for GI50 / CC50: Homo sapiens, K562, 48 h; for GI50: read-out: GI50 K-562, SRB assay, 48 hours exposure; for CC50: read-out: LC50 K-562, SRB assay, 48 hours exposure; for TGI K-562: SRB assay, 48 hours exposure
Outline: as §1

IGROV-ET = assay: Inhibition of cells growth by colorimetric (SRB) assay, IGROV-ET; conditions: for GI50 / CC50: Homo sapiens, 48 h; for GI50: read-out: GI50 IGROV-ET, SRB assay, 48 hours exposure; for CC50: read-out: LC50 IGROV-ET, SRB assay, 48 hours exposure; for TGI IGROV-ET: SRB assay, 48 hours exposure
Outline: as §1

SK-OV-3 = assay: Inhibition of cells growth by colorimetric (SRB) assay, SK-OV-3; conditions: for GI50 / CC50: Homo sapiens, SK-OV-3, 48 h; for GI50: read-out: GI50 SKOV-3, SRB assay, 48 hours exposure; for CC50: read-out: LC50 SKOV-3, SRB assay, 48 hours exposure; for TGI SKOV-3: SRB assay, 48 hours exposure
Outline: as §1

DU-145 = assay: Inhibition of cells growth by colorimetric (SRB) assay, DU-145; conditions: for GI50 / CC50: Homo sapiens, DU-145, 48 h; for GI50: read-out: GI50 DU-145, SRB assay, 48 hours exposure; for CC50: read-out: LC50 DU-145, SRB assay, 48 hours exposure; for TGI DU-145: SRB assay, 48 hours exposure
Outline: as §1

SK-BR-3 = assay: Inhibition of cells growth by colorimetric (SRB) assay, SK-BR-3; conditions: for GI50 / CC50: Homo sapiens, SK-BR-3, 48 h; for GI50: read-out: GI50 SK-BR-3, SRB assay, 48 hours exposure; for CC50: read-out: LC50 SK-BR-3, SRB assay, 48 hours exposure; for TGI SK-BR-3: SRB assay, 48 hours exposure
Outline: as §1

LoVo-Dox = assay: Inhibition of cells growth by colorimetric (SRB) assay, LoVo-Dox
Outline: as §1

A-549 = assay: Inhibition of cells growth by colorimetric (SRB) assay, A-549; conditions: for GI50 / CC50: Homo sapiens, A549, 48 h; for GI50: read-out: GI50 A-549, SRB assay, 48 hours exposure; for CC50: read-out: LC50 A-549, SRB assay, 48 hours exposure; for TGI A-549: SRB assay, 48 hours exposure
Outline: as §1

LNCaP = assay: Inhibition of cells growth by colorimetric (SRB) assay, LNCaP; conditions: for GI50 / CC50: Homo sapiens, LNCaP, 48 h; for GI50: read-out: GI50 LN-caP, SRB assay, 48 hours exposure; for CC50: read-out: LC50 LN-caP, SRB assay, 48 hours exposure; for TGI LN-caP: SRB assay, 48 hours exposure
Outline: as §1

HMEC1 = assay: Inhibition of cells growth by colorimetric (SRB) assay, HMEC1; conditions: for GI50: Homo sapiens, HMEC-1, 48 h, read-out: GI50 H-MEC-1, SRB assay, 48 hours exposure; for TGI H-MEC-1: SRB assay, 48 hours exposure, in M (unit assumed)
[1] = as above; conditions: human, HMEC1 cells, LC50 H-MEC-1, SRB assay, 48 hours exposure

## CSc1nccc2c(-c3cccs3)c3cccnc3n12 [Compound 60]
HT-29; Homo sapiens, HT-29, 48 h, read-out: GI50 HT-29, SRB assay, 48 hours exposure
  GI50: ≥ 33.6 µM
HT-29; Homo sapiens, HT-29, 48 h, read-out: LC50 HT-29, SRB assay, 48 hours exposure
  CC50: ≥ 33.6 µM
HT-29; SRB assay, 48 hours exposure
  TGI HT-29: 3.36E−05
IGROV-1
  GI50: 10.8 µM
  CC50: ≥ 33.6 µM
  TGI IGROV: 3.36E−05
LoVo; Homo sapiens, LoVo, 48 h, read-out: GI50 LOVO, SRB assay, 48 hours exposure
  GI50: ≥ 33.6 µM
LoVo; Homo sapiens, LoVo, 48 h, read-out: LC50 LOVO, SRB assay, 48 hours exposure
  CC50: ≥ 33.6 µM
LoVo; SRB assay, 48 hours exposure
  TGI LOVO: 3.36E−05
PANC-1; Homo sapiens, PANC-1, 48 h
  GI50: ≥ 33.6 µM
PANC-1; Homo sapiens, PANC-1, 48 h, read-out: LC50 PANC-1, SRB assay, 48 hours exposure
  CC50: ≥ 33.6 µM
PANC-1; SRB assay, 48 hours exposure
  TGI PANC-1: 3.36E−05
SK-MEL-28
  GI50: ≥ 33600 nM
  CC50: ≥ 33.6 µM
  TGI MEL-28: 3.36E−05
K-562
  GI50: ≥ 33600 nM
  CC50: ≥ 33.6 µM
  TGI K-562: 3.36E−05
IGROV-ET
  GI50: ≥ 33.6 µM
  CC50: ≥ 33.6 µM
  TGI IGROV-ET: 3.36E−05
SK-OV-3
  GI50: ≥ 33600 nM
  CC50: ≥ 33.6 µM
  TGI SKOV-3: 3.36E−05
DU-145
  GI50: ≥ 33600 nM
  CC50: ≥ 33.6 µM
  TGI DU-145: 3.36E−05
SK-BR-3
  GI50: 240 nM
  CC50: 3.36 µM
  TGI SK-BR-3: 9.95E−07
LoVo-Dox; Homo sapiens, 48 h, read-out: GI50 LOVO-DOX, SRB assay, 48 hours exposure
  GI50: ≥ 33.6 µM
LoVo-Dox; Homo sapiens, 48 h, read-out: LC50 LOVO-DOX, SRB assay, 48 hours exposure
  CC50: ≥ 33.6 µM
LoVo-Dox; SRB assay, 48 hours exposure
  TGI LOVO-DOX: 3.36E−05
A-549
  GI50: 22.6 µM
  CC50: ≥ 33.6 µM
  TGI A-549: 3.36E−05
LNCaP
  GI50: ≥ 33600 nM
  CC50: ≥ 33600 nM
  TGI LN-caP: 3.36E−05
HMEC1
  GI50: 22.6 µM
  TGI H-MEC-1: 3.36E−05
[1]
  CC50 at 48 h: ≥ 33.6 µM

## COc1nccc(-c2c3c(Cl)ccnc3n3c(N)nccc23)n1 [Compound 112]
IGROV-1
  GI50: 1.65 µM
  CC50: 30.6 µM
  TGI IGROV: 7.59E−06
PANC-1; Homo sapiens, PANC-1, 48 h
  GI50: 6.34 µM
SK-MEL-28
  GI50: 321 nM
  CC50: 16.6 µM
  TGI MEL-28: 5.29E−06
K-562
  GI50: 1400 nM
  CC50: 30.6 µM
  TGI K-562: 8.66E−06
IGROV-ET
  GI50: 7.65 µM
  CC50: 30.6 µM
  TGI IGROV-ET: 1.91E−05
SK-OV-3
  GI50: 989 nM
  CC50: 30.6 µM
  TGI SKOV-3: 2.30E−06
DU-145
  GI50: 716 nM
  CC50: 3.06 µM
  TGI DU-145: 1.72E−06
SK-BR-3
  GI50: 2010 nM
  CC50: 27.8 µM
  TGI SK-BR-3: 7.13E−06
A-549
  GI50: 1.38 µM
  CC50: 30.6 µM
  TGI A-549: 4.35E−06
LNCaP
  GI50: 872 nM
  CC50: 2620 nM
  TGI LN-caP: 1.51E−06
HMEC1
  GI50: 1.27 µM
  TGI H-MEC-1: 4.71E−06
[1]
  CC50 at 48 h: 11.9 µM
